Source: ChEMBL document CHEMBL1140749, “Novel copper(II) complex of N-propyl-norfloxacin and 1,10-phenanthroline with enhanced antileukemic and DNA nuclease activities” (2008)
Values after ≈ are worked out from the molar mass of the structure shown.

Key:
Assay type in all cases: functional
[1] = test system: Staphylococcus aureus; experiment: Antibacterial activity against Staphylococcus aureus
[2] = test system: Escherichia coli; experiment: Antibacterial activity against Escherichia coli
[3] = test system: Pseudomonas aeruginosa; experiment: Antibacterial activity against Pseudomonas aeruginosa

| Compound | MIC [1] [µg/mL] | MIC [2] [µg/mL] | MIC [3] [µg/mL] |
| --- | --- | --- | --- |
| CCN1CCN(c2cc3c(cc2F)c(=O)c(C(=O)O)cn3C2CC2)CC1 [ENROFLOXACIN] | 8 (≈ 22.3 µM) | 1 (≈ 2.78 µM) | 1 (≈ 2.78 µM) |
| c1cnc2c(c1)ccc1cccnc12 [PHENANTHROLINE] | 32 (≈ 178 µM) | 32 (≈ 178 µM) | 32 (≈ 178 µM) |
| c1ccc(-c2ccccn2)nc1 [DIPYRIDYL] | 256 (≈ 1640 µM) | 256 (≈ 1640 µM) | 256 (≈ 1640 µM) |
| CCn1cc(C(=O)O)c(=O)c2cc3c(cc21)OCO3 [OXOLINIC ACID] | 16 (≈ 61.2 µM) | 1 (≈ 3.83 µM) | 16 (≈ 61.2 µM) |
| CCCN1CCN(c2cc3c(cc2F)c(=O)c(C(=O)O)cn3CC)CC1 | 16 (≈ 44.3 µM) | 4 (≈ 11.1 µM) | 4 (≈ 11.1 µM) |
